Earlier results as cited in patent publication US20090029375A1, “GENETIC MODELS FOR STRATIFICATION OF CANCER RISK” (Intergenetics, Inc., priority 2007, published 2009).

Assays:
[1] = tested on: rat mammary carcinoma induced by dimethylbenzanthracene (DMBA)
[2] = tested on: breast cancer; details: osteoporosis prevention/treatment study
[3] = tested on: estrogen receptors; details: preclinical data, uterine and breast tissues

CC/C(=C(\c1ccccc1)c1ccc(OCCN(C)C)cc1)c1ccccc1 [tamoxifen]
induction of rat mammary carcinoma [1]: inhibits the induction

O=C(c1ccc(OCCN2CCCCC2)cc1)c1c(-c2ccc(O)cc2)sc2cc(O)ccc12 [raloxifene]
effect on incidence of breast cancer [2]: reduce the incidence of breast cancer
estrogen antagonism [3]: estrogen antagonist
